# Reference: paper PMC7064328 (Environmental Health Perspectives, 2020)
# System: placenta
# Assay: Placental histopathology
# Assay type: in vivo, mouse (CD-1)
# Conditions: for Lowest dose tested resulting in adverse placental pathology: this study
# Protocol: Dam livers, kidneys, and placentas were trimmed and embedded by the NIEHS Mouse Embryo Phenotyping Core. Tissues collected at necropsy were fixed in 4% PFA for 72 h and paraffin embedded, and 5-μm sections were prepared and stained with hematoxylin and eosin (H&E). Pathology was evaluated and a pathology review conducted by S.A.E. Diplomate American College of Veterinary Pathologists (DACVP). Pathology reviews were conducted as an informed approach analysis [e.g., nonblinded analysis; see Sills et al. ([2019])]. Select tissue slides were scanned using the AT2 Scanner (Aperio). Images were then captured for publication using the ImageScope software; version 12.3.0.5056 (Aperio). Serum and urine obtained from dams in Block 2 were analyzed using the AU480 clinical chemistry analyzer (Beckman Coulter Inc.). Reagents and calibration standards used to measure alkaline phosphatase (ALP), alanine aminotransferase (ALT), aspartate aminotransferase (AST), blood urea nitrogen (BUN), serum creatinine, urine creatinine, glucose (Glu), total protein (TP), triglyceride (Trig), high-density lipoprotein (HDL), cholesterol (Chol), and albumin (ALB) were purchased from Beckman Coulter Inc. Reagents for sorbitol dehydrogenase (SDH), total bile acid (TBA), and micro-TP were purchased from Sekisui Diagnostics. The reagent used to measure low-density lipoprotein (LDL) was purchased form Diazyme Laboratories.
# Histopathological lesions of evaluated placenta were evaluated using two statistical approaches. The first approach assumed the absence of litter effects and considered each placenta evaluated within a treatment group to be a totally independent observation, regardless of its litter of origin. […] The second approach considered the litter as the biological unit and compared the relative incidence of placental lesions [e.g., percent within normal limits (WNL)] to adjust for differences in the total number of observations across litters within and between treatment groups. […] Both approaches were subjected to simultaneous tests for general linear hypotheses to correct for multiple comparisons using Tukey contrasts in the package multcomp ([Hothorn et al. 2009]).
structure (smiles),measurement,setting,value
"O=C(O)C(F)(F)C(F)(F)C(F)(F)C(F)(F)C(F)(F)C(F)(F)C(F)(F)F [PFOA, Perfluorooctanoic acid]",Early fibrin clot: %,"E11.5, 1 mg/kg/d",0%
same,Early fibrin clot: No.,"E11.5, 1 mg/kg/d",0
same,Labyrinth atrophy: %,"E11.5, 1 mg/kg/d",0%
same,Labyrinth atrophy: No.,"E11.5, 1 mg/kg/d",0
same,Labyrinth congestion: %,"E11.5, 1 mg/kg/d",0%
same,Labyrinth congestion: No.,"E11.5, 1 mg/kg/d",0
same,Labyrinth necrosis: %,"E11.5, 1 mg/kg/d",0%
same,Labyrinth necrosis: No.,"E11.5, 1 mg/kg/d",0
same,Mean WNL per litter (%),"E11.5, 1 mg/kg/d",98.0%
same,Mean WNL ± SD per litter,"E11.5, 1 mg/kg/d",6.4 ± 1.9
same,Mean abnormal per litter (%),"E11.5, 1 mg/kg/d",2.0%
same,Mean abnormal ± SD per litter,"E11.5, 1 mg/kg/d",0.2 ± 0.4
same,Other placental lesions: %,"E11.5, 1 mg/kg/d",3.0%
same,Other placental lesions: No.,"E11.5, 1 mg/kg/d",1
same,Placental nodule: %,"E11.5, 1 mg/kg/d",0%
same,Placental nodule: No.,"E11.5, 1 mg/kg/d",0
same,Placentas WNL: %,"E11.5, 1 mg/kg/d",97.0%
same,Placentas WNL: No.,"E11.5, 1 mg/kg/d",32
same,Placentas abnormal: %,"E11.5, 1 mg/kg/d",3.0%
same,Placentas abnormal: No.,"E11.5, 1 mg/kg/d",4
same,Early fibrin clot: %,"E11.5, 5 mg/kg/d",0%
same,Early fibrin clot: No.,"E11.5, 5 mg/kg/d",0
same,Labyrinth atrophy: %,"E11.5, 5 mg/kg/d",8.3%
same,Labyrinth atrophy: No.,"E11.5, 5 mg/kg/d",3
same,Labyrinth congestion: %,"E11.5, 5 mg/kg/d",0%
same,Labyrinth congestion: No.,"E11.5, 5 mg/kg/d",0
same,Labyrinth necrosis: %,"E11.5, 5 mg/kg/d",2.7%
same,Labyrinth necrosis: No.,"E11.5, 5 mg/kg/d",1
same,Mean WNL per litter (%),"E11.5, 5 mg/kg/d",88.3%
same,Mean WNL ± SD per litter,"E11.5, 5 mg/kg/d",6.4 ± 1.7
same,Mean abnormal per litter (%),"E11.5, 5 mg/kg/d",11.7%
same,Mean abnormal ± SD per litter,"E11.5, 5 mg/kg/d",1.0 ± 1.4
same,Other placental lesions: %,"E11.5, 5 mg/kg/d",0%
same,Other placental lesions: No.,"E11.5, 5 mg/kg/d",0
same,Placental nodule: %,"E11.5, 5 mg/kg/d",0%
same,Placental nodule: No.,"E11.5, 5 mg/kg/d",0
same,Placentas WNL: %,"E11.5, 5 mg/kg/d",88.9%
same,Placentas WNL: No.,"E11.5, 5 mg/kg/d",32
same,Placentas abnormal: %,"E11.5, 5 mg/kg/d",11.1%
same,Placentas abnormal: No.,"E11.5, 5 mg/kg/d",4
same,Early fibrin clot: %,"E17.5, 1 mg/kg/d",0%
same,Early fibrin clot: No.,"E17.5, 1 mg/kg/d",0
same,Labyrinth atrophy: %,"E17.5, 1 mg/kg/d",0%
same,Labyrinth atrophy: No.,"E17.5, 1 mg/kg/d",0
same,Labyrinth congestion: %,"E17.5, 1 mg/kg/d",0%
same,Labyrinth congestion: No.,"E17.5, 1 mg/kg/d",0
same,Labyrinth necrosis: %,"E17.5, 1 mg/kg/d",3.1%
same,Labyrinth necrosis: No.,"E17.5, 1 mg/kg/d",1
same,Mean WNL per litter (%),"E17.5, 1 mg/kg/d",91.4%
same,Mean WNL ± SD per litter,"E17.5, 1 mg/kg/d",5.8 ± 1.3
same,Mean abnormal per litter (%),"E17.5, 1 mg/kg/d",8.6%
same,Mean abnormal ± SD per litter,"E17.5, 1 mg/kg/d",0.6 ± 0.9
same,Other placental lesions: %,"E17.5, 1 mg/kg/d",0%
same,Other placental lesions: No.,"E17.5, 1 mg/kg/d",0
same,Placental nodule: %,"E17.5, 1 mg/kg/d",6.3%
same,Placental nodule: No.,"E17.5, 1 mg/kg/d",2
same,Placentas WNL: %,"E17.5, 1 mg/kg/d",90.6%
same,Placentas WNL: No.,"E17.5, 1 mg/kg/d",29
same,Placentas abnormal: %,"E17.5, 1 mg/kg/d",9.4%
same,Placentas abnormal: No.,"E17.5, 1 mg/kg/d",3
same,Early fibrin clot: %,"E17.5, 5 mg/kg/d",2.5%
same,Early fibrin clot: No.,"E17.5, 5 mg/kg/d",1
same,Labyrinth atrophy: %,"E17.5, 5 mg/kg/d",7.5%
same,Labyrinth atrophy: No.,"E17.5, 5 mg/kg/d",3
same,Labyrinth congestion: %,"E17.5, 5 mg/kg/d",57.5%
same,Labyrinth congestion: No.,"E17.5, 5 mg/kg/d",23
same,Labyrinth necrosis: %,"E17.5, 5 mg/kg/d",0%
same,Labyrinth necrosis: No.,"E17.5, 5 mg/kg/d",0
same,Mean WNL per litter (%),"E17.5, 5 mg/kg/d",38.1%
same,Mean WNL ± SD per litter,"E17.5, 5 mg/kg/d",2.2 ± 2.7
same,Mean abnormal per litter (%),"E17.5, 5 mg/kg/d",61.9%
same,Mean abnormal ± SD per litter,"E17.5, 5 mg/kg/d",4.5 ± 3.8
same,Other placental lesions: %,"E17.5, 5 mg/kg/d",0%
same,Other placental lesions: No.,"E17.5, 5 mg/kg/d",0
same,Placental nodule: %,"E17.5, 5 mg/kg/d",0%
same,Placental nodule: No.,"E17.5, 5 mg/kg/d",0
same,Placentas WNL: %,"E17.5, 5 mg/kg/d",32.5%
same,Placentas WNL: No.,"E17.5, 5 mg/kg/d",13
same,Placentas abnormal: %,"E17.5, 5 mg/kg/d",67.5%
same,Placentas abnormal: No.,"E17.5, 5 mg/kg/d",27
same,Lowest dose tested resulting in adverse placental pathology,,5 mg/kg/d
"N.O=C(O)C(F)(OC(F)(F)C(F)(F)C(F)(F)F)C(F)(F)F (centres unmarked) [GenX, ammonium 2,3,3,3-tetrafluoro-2-(heptafluoropropoxy)propanoate]",Early fibrin clot: No.,"E11.5, 2 mg/kg/d",1
same,Labyrinth atrophy: %,"E11.5, 2 mg/kg/d",0%
same,Labyrinth atrophy: No.,"E11.5, 2 mg/kg/d",0
same,Labyrinth congestion: %,"E11.5, 2 mg/kg/d",0%
same,Labyrinth congestion: No.,"E11.5, 2 mg/kg/d",0
same,Labyrinth necrosis: %,"E11.5, 2 mg/kg/d",0%
same,Labyrinth necrosis: No.,"E11.5, 2 mg/kg/d",0
same,Mean WNL per litter (%),"E11.5, 2 mg/kg/d",95.6%
same,Mean WNL ± SD per litter,"E11.5, 2 mg/kg/d",8.2 ± 2.8
same,Mean abnormal per litter (%),"E11.5, 2 mg/kg/d",4.4%
same,Mean abnormal ± SD per litter,"E11.5, 2 mg/kg/d",0.4 ± 0.9
same,Other placental lesions: %,"E11.5, 2 mg/kg/d",2.3%
same,Other placental lesions: No.,"E11.5, 2 mg/kg/d",1
same,Placental nodule: %,"E11.5, 2 mg/kg/d",0%
same,Placental nodule: No.,"E11.5, 2 mg/kg/d",0
same,Placentas WNL: %,"E11.5, 2 mg/kg/d",95.3%
same,Placentas WNL: No.,"E11.5, 2 mg/kg/d",41
same,Placentas abnormal: %,"E11.5, 2 mg/kg/d",4.7%
same,Placentas abnormal: No.,"E11.5, 2 mg/kg/d",2
same,Early fibrin clot: %,"E11.5, 10 mg/kg/d",0%
same,Early fibrin clot: No.,"E11.5, 10 mg/kg/d",0
same,Labyrinth atrophy: %,"E11.5, 10 mg/kg/d",0%
same,Labyrinth atrophy: No.,"E11.5, 10 mg/kg/d",0
same,Labyrinth congestion: %,"E11.5, 10 mg/kg/d",0%
same,Labyrinth congestion: No.,"E11.5, 10 mg/kg/d",0
same,Labyrinth necrosis: %,"E11.5, 10 mg/kg/d",0%
same,Labyrinth necrosis: No.,"E11.5, 10 mg/kg/d",0
same,Mean WNL per litter (%),"E11.5, 10 mg/kg/d",97.1%
same,Mean WNL ± SD per litter,"E11.5, 10 mg/kg/d",6.0 ± 3.1
same,Mean abnormal per litter (%),"E11.5, 10 mg/kg/d",0%
same,Mean abnormal ± SD per litter,"E11.5, 10 mg/kg/d",0 ± 0.0
same,Other placental lesions: %,"E11.5, 10 mg/kg/d",0%
same,Other placental lesions: No.,"E11.5, 10 mg/kg/d",0
same,Placental nodule: %,"E11.5, 10 mg/kg/d",0%
same,Placental nodule: No.,"E11.5, 10 mg/kg/d",0
same,Placentas WNL: %,"E11.5, 10 mg/kg/d",100%
same,Placentas WNL: No.,"E11.5, 10 mg/kg/d",30
same,Placentas abnormal: %,"E11.5, 10 mg/kg/d",0.0%
same,Placentas abnormal: No.,"E11.5, 10 mg/kg/d",0
same,Early fibrin clot: %,"E17.5, 2 mg/kg/d",3.2%
same,Early fibrin clot: No.,"E17.5, 2 mg/kg/d",1
same,Labyrinth atrophy: %,"E17.5, 2 mg/kg/d",48.4%
same,Labyrinth atrophy: No.,"E17.5, 2 mg/kg/d",15
same,Labyrinth congestion: %,"E17.5, 2 mg/kg/d",3.2%
same,Labyrinth congestion: No.,"E17.5, 2 mg/kg/d",1
same,Labyrinth necrosis: %,"E17.5, 2 mg/kg/d",0%
same,Labyrinth necrosis: No.,"E17.5, 2 mg/kg/d",0
same,Mean WNL per litter (%),"E17.5, 2 mg/kg/d",51.7%
same,Mean WNL ± SD per litter,"E17.5, 2 mg/kg/d",2.6 ± 2.8
same,Mean abnormal per litter (%),"E17.5, 2 mg/kg/d",48.3%
same,Mean abnormal ± SD per litter,"E17.5, 2 mg/kg/d",3.6 ± 3.6
same,Other placental lesions: %,"E17.5, 2 mg/kg/d",0%
same,Other placental lesions: No.,"E17.5, 2 mg/kg/d",0
same,Placental nodule: %,"E17.5, 2 mg/kg/d",3.2%
same,Placental nodule: No.,"E17.5, 2 mg/kg/d",1
same,Placentas WNL: %,"E17.5, 2 mg/kg/d",41.9%
same,Placentas WNL: No.,"E17.5, 2 mg/kg/d",13
same,Placentas abnormal: %,"E17.5, 2 mg/kg/d",58.1%
same,Placentas abnormal: No.,"E17.5, 2 mg/kg/d",18
same,Early fibrin clot: %,"E17.5, 10 mg/kg/d",11.4%
same,Early fibrin clot: No.,"E17.5, 10 mg/kg/d",4
same,Labyrinth atrophy: %,"E17.5, 10 mg/kg/d",45.7%
same,Labyrinth atrophy: No.,"E17.5, 10 mg/kg/d",16
same,Labyrinth congestion: %,"E17.5, 10 mg/kg/d",22.9%
same,Labyrinth congestion: No.,"E17.5, 10 mg/kg/d",8
same,Labyrinth necrosis: %,"E17.5, 10 mg/kg/d",2.9%
same,Labyrinth necrosis: No.,"E17.5, 10 mg/kg/d",1
same,Mean WNL per litter (%),"E17.5, 10 mg/kg/d",12.0%
same,Mean WNL ± SD per litter,"E17.5, 10 mg/kg/d",1.2 ± 2.7
same,Mean abnormal per litter (%),"E17.5, 10 mg/kg/d",88.0%
same,Mean abnormal ± SD per litter,"E17.5, 10 mg/kg/d",5.8 ± 3.0
same,Other placental lesions: %,"E17.5, 10 mg/kg/d",0%
same,Other placental lesions: No.,"E17.5, 10 mg/kg/d",0
same,Placental nodule: %,"E17.5, 10 mg/kg/d",0%
same,Placental nodule: No.,"E17.5, 10 mg/kg/d",0
same,Placentas WNL: %,"E17.5, 10 mg/kg/d",17.1%
same,Placentas WNL: No.,"E17.5, 10 mg/kg/d",6
same,Placentas abnormal: %,"E17.5, 10 mg/kg/d",82.9%
same,Placentas abnormal: No.,"E17.5, 10 mg/kg/d",29
same,Lowest dose tested resulting in adverse placental pathology,,2 mg/kg/d
